Results published in patent publication US6893829B2, “Human leukocyte 12-lipoxygenase and its role in the pathogenesis of disease states” (City of Hope, priority 1992, dated 2005).

Tests used:
[1] = tested on: leukocyte 12-LO mRNA in HSMC; assay: 12-LO mRNA expression in HSMC (RT-PCR); type: cell-based, human; conditions: AII 10^−7 mol/L
Excerpt: FIGS. 5A and 5B illustrate the regulation of leukocyte 12-LO mRNA levels by AII in HSMC using RT-PCR. FIG. 5A is the autoradiogram of the blot hybridized with 12-LO oligonucleotide probe. FIG. 5B is etidium bromide stained agarose gel. […] RNA samples were amplified for 40 cycles with leukocyte 12-LO primers or GAPDH primers.
Total RNA from cultured HSMC, HAEC and fresh MO was extracted with guanidiumthiocyanate-phenol-chloroform using RNAzol (Cinna/Biotecx Laboratories International Inc., Texas). Some RNA samples were treated by RNAse-free DNAse. 3 microgram of total RNA was mixed with the PCR buffer (10 mmol/L Tris-HCl, pH 8.3, 50 mmol/L KCl, 1.5 mmol/L MgCl2, and 0.001% gelatin), 200 μmol/L of each of the four deoxynucleotide triphosphates, 25 pmol each of 5′- and 3′-primers, 2 U Avian Myeloblastosis Virus reverse transcriptase (20 U/μl; Life Sciences, St. Petersburg, Fla.), and 2.5 U Taq polymerase (Perkin Elmer Cetus, Norwalk, Conn.) in a final vol of 50 μl. In some reactions, 5 pmol of each 5′- and 3′-primer of β2 macroglobulin or GAPDH were added as an internal standard. The samples were placed in a thermal cycler at 37° C. for eight minutes for the RT reaction to proceed. Then conditions used for PCR were a denaturation step at 94° C. for one-minute, annealing at 50° C. for two minutes, and extension at 72° C. for two minutes for 20-40 cycles. Blank reactions with no RNA template were carried out through the RT and PCR steps. […]
20 μl aliquots of the PCR products were subjected to electrophoresis in a 1.8% agarose gel in Tris acetate-EDTA buffer. […] Blots were quantitated using a computerized video densitometer.
In order to evaluate the specific expression and regulation of 12-LO mRNA in HSMC, applicants used a RT-PCR assay that exclusively amplifies the leucocyte type of 12-LO. […] When PCR conditions were used that were specific for either the platelet type 12-LO or human 15-LO no specific RNA band was detected (data not shown). […]

[2] = tested on: PAK; assay: PAK activity in CHO-AT1a cells; type: cell-based, Chinese hamster; conditions: AII 10^−7M, 30 minutes
Experimental: Cell lysis and PAK activity measurement were performed as described in Science, 269:221-223 (1995). Cells were lysed on ice in 50 mM Tris-HCl, 150 mM NaCl, 5 mM EGTA, 50 mM NaF, 10 mM Na pyrophosphate, 1% NP-40, 2.5% glycerol, and 1 mM Na3VO4 (pH 7.5), containing protease inhibitors PMSF, leupeptin and aprotinin. Cell were centrifuged for 10 minutes at 1000 g. For immunoprecipitation, the supernatants were incubated with anti-PAK1 or anti-PAK2 antibody (1:25) (Dept. Immuno. & Cell Biology, Scripps Res. Instit., La Jolla, Calif.) for 2 hours at 4° C. followed by incubation with 60 μl of 1:1 protein A beads for 60 minutes, then 5×1.0 ml lysis buffer washes and 2 washes with kinase buffer (50 mM HEPES, pH 7.5, 10 mM MgCl2 0.2 mM dithiothreitol, 2 μg myelin basic protein and 14 Mμ [r-^32P] ATP) for 20 minutes at 30° C. The reaction was stopped with SDS sample buffer, and results were visualized by SDS-PAGE and autoradiography.
It has been discovered that the administration of AII results in biphasic activation of MAP kinase (all of the MAP kinase experiments were conducted in CHO-AT1a cells—AII receptor AT1a cDNA transfected Chinese hamster ovary cells).

Angiotensin II (DRVYIHPF; Angiotensin-2; UniProt P01019 25-32, looked up) [AII, peptide hormone, added to cells as stimulus]
incubation time at which 12-LO mRNA induction starts [1]: 12 h | incubation time of maximum 12-LO mRNA induction [1]: 36 h | leukocyte type 12-LO mRNA expression ([1]; serum deprived HSMC): markedly upregulated | stimulation of PAK, major peak [2]: 5 fold
